# Assay results: patent publication US12589156B2, “Benzimidazole and benzimidazolone based protac compounds for the targeted degradation of leucine rich repeat kinase 2 (LRRK2)” (Arvinas Operations, Inc., priority 2023, dated 2026)
# Target: T1, WT LRRK2 (Homo sapiens, UniProt Q5S007)
# T1 construct: endogenous in cells; host or cells: HEK293 (endogenous LRRK2 gene knock-in tagged with HiBit; stably expressing CMV-driven firefly luciferase)
# Assay: LRRK2 HiBit degradation assay (Nano-Glo Dual Luciferase) in HEK293 cells with HiBit-tagged endogenous LRRK2
# Assay type: cell-based
# Details: HiBit-tagged LRRK2 in HEK293 cells, 24 hours treatment; for Dmax: maximal degradation; for DC50: starting concentration 1 μM
# Text: Biological Assays Exemplary Assay for Testing LRRK2 Degradation Driven by Exemplary Hetero-Bifunctional Compounds Designed to Target LRRK2
# The assay measures the degradation of LRRK2 in cells where the C-terminus (3′) of the endogenous gene has been tagged with a HiBit sequence in HEK293 cells. The cells also express firefly lucisferase, expressed from a Cytomegalovirus promoter and introduced into the HiBit tagged cells and stably expressed. The Nano-Glo® Dual Luciferase Reporter Assay System (Promega™, Madison, WI) was utilized.
# Day 1—Preparation of Compound and Assay Plates. Two sets of plates were prepared: a triplicate set for the HiBit assay in white 384-well plates and a triplicate set of plate in black 384-well plates for the Alamar Blue cell viability assay. Briefly, the growth media (DMEM+Glutamax-10% fetal bovine serum-1% Penicillin-Streptomicin) from two T128 flasks was aspirated from the flasks. Cells were washed with Dulbecco's Phosphate Buffered Saline (dPBS) and aspirated. Trypsin (3 mL per flask) was added and the flasks were incubated for 2-3 minutes.
# Ten mL of OptiMEM—10% fetal bovine-1% penicillin-streptomycin (hereinafter, “OptiMEM media”) was added to the flask and the cells and transferred to a 50 ml conical tube. A cell count (25 ul of cell into Effendorf vial+25 ul of Trypan Blue Stain) was performed and the cell density adjusted to 15,000 cell/45 μl/well (3.33×10^5/mL) in OptiMEM media.
# Forty-five microliters of the cell suspension (15,000 cells) was aliquoted to each well of the white 384-well plate. The plates incubated at room temperature for 10 minutes before being placed in the 37° C.+5% CO2 incubator overnight
# Day 2—Compound Treatment. Exemplary compounds were prepared at a 1 mM starting concentration and 1:3 serial dilution for 11 points CRC prepared and stored in the freezer. The Master Compound Plate was thawed overnight at room temperature. DMSO (20 μL) was added into column 24 of the Master Compound Plate for negative control and 20 μL of 300 μM of Compound 4 in column 23 as positive control.
# Intermediate Compound Plate with 4% DMSO in OptiMEM Media. DMSO was added to warm OptiMEM media to achieve a 4% DMSO solution (approximately 50 mL/plate). One-hundred microliters of the OptiMEM-4% DMSO was aliquoted to each well of 384-Well Deep Well Microplates.
# The Master Compound Plate and the Intermediate Compound Plate were spun down.
# One microliter of compound from the Master Compound Plate was transferred into the Intermediate plate (a 1:100 dilution). The diluted mixture was mixed and 5 μL transferred into the assay plate (a 1:10 dilution) for the final starting concentration of 1 μM. The Treated Assay plates were incubated for 24 hours at 37° C.+5% CO2. The Master Compound Plate was sealed and store at room temperature for a second run that was performed within a week.
# One set of white assay plates was warmed to room temperature (45 minute).
# The One Glo luciferase mixture was prepared. The media from white 384-well assay plates was aspirated. Twenty-five μL of the One Glo luciferase mixture was added to each well of the assay plates. The plates were incubated on the bench (room temperature) for 45 minutes, including 10 minutes of shaking at 700 rpm. The luminescence of each plate was read on a plate reader.
# 1:100 DLR substrate and 1:100 LgBiT Protein dilution were added to the Promega Stop and Glo buffer and mixed just before addition to assay plates. Twenty-five microliters of Stop and Glo mixture was added to each well. Assay plates incubated for at least 45 minutes, including 10 minutes of shaking at 700 rpm. The luminescence of each plate was read on a plate reader.
# Analysis of LRRK2 HiBit Screening assays. As mentioned above, plates were run in triplicate and the assay repeated twice (total of 6 replicate for exemplary compounds). For each treatment, measurements were taken for firefly luciferase for cell number, cell viability (Alamar Blue), and Nanoluc for the LRRK2-HiBit quantification. […]
# T1 sequence (Q5S007 whole entry): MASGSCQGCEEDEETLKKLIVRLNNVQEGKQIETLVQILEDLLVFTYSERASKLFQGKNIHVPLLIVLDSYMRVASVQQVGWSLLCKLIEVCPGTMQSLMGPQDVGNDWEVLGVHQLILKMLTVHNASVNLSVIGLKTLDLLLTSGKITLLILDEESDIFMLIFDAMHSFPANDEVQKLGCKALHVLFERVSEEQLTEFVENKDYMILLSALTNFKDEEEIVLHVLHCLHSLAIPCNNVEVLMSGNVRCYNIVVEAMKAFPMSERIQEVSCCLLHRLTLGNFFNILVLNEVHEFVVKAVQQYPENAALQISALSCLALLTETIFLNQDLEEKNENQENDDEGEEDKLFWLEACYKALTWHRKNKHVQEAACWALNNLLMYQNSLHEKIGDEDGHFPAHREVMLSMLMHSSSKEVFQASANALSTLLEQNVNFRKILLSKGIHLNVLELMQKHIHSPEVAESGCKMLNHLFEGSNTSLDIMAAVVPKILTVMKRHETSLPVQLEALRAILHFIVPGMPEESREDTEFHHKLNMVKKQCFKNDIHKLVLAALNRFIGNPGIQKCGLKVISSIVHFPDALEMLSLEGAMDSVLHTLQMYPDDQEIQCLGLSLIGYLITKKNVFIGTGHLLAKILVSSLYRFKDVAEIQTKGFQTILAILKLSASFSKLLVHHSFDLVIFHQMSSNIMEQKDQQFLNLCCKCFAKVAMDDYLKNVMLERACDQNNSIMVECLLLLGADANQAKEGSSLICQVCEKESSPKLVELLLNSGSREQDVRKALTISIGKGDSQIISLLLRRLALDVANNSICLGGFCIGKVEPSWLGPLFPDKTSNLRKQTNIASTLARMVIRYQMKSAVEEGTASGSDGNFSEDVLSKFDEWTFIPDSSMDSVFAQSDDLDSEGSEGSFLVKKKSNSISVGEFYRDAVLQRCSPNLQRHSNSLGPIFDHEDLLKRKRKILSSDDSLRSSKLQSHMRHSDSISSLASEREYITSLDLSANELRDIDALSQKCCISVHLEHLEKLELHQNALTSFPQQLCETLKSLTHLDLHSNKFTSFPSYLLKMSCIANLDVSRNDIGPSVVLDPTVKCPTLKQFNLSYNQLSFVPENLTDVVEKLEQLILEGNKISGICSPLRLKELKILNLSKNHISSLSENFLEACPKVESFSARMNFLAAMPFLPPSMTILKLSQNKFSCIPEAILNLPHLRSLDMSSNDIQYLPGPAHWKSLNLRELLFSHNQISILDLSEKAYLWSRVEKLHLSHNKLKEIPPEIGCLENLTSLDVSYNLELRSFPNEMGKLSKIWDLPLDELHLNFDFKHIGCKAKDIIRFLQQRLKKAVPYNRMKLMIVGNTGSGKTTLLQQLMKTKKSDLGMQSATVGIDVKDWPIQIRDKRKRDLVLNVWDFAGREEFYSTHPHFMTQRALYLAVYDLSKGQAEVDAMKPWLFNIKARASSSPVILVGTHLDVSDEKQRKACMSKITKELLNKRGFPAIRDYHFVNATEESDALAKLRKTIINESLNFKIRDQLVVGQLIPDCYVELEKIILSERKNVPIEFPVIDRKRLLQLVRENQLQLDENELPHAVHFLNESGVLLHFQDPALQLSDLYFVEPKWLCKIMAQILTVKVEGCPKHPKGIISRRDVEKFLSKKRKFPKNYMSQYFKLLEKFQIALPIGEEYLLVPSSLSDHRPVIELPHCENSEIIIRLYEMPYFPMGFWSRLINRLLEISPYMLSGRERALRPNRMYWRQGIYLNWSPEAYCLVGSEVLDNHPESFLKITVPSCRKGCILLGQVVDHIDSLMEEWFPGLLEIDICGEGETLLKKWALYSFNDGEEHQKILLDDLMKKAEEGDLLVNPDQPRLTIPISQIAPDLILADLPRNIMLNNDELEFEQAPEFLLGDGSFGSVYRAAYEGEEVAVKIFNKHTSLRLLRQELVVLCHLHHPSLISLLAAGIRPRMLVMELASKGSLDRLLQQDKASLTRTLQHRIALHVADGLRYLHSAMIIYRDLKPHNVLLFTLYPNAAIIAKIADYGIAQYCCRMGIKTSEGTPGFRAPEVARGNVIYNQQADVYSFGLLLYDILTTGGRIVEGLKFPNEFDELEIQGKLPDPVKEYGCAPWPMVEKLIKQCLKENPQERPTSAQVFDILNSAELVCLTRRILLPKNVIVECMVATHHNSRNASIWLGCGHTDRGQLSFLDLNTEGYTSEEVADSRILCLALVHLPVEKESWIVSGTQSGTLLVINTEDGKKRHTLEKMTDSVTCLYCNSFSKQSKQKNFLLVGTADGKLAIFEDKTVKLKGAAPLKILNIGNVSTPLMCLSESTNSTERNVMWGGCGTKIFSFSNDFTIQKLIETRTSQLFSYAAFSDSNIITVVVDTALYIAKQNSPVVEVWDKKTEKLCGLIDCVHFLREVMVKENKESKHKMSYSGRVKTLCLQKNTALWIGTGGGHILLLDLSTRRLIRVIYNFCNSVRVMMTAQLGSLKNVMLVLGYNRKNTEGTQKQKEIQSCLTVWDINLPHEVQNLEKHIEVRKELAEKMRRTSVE
"Dmax (HEK293, Table 2) [%]",SMILES,DC50 (Table 2) [nM],Dmax (Table 2) [%]
–,"Cn1c(=O)n(C2CCC(=O)NC2=O)c2ccc(N3CCN(C[C@H]4C[C@H](OC5CCN(c6cc(-c7n[nH]c8cnc(OC9(C)CC9)cc78)ncn6)CC5)C4)CC3)cc21 (single isomer, unassigned) [Compound 36, rel-3-[3-methyl-2-oxo-5-(4-{[(1r,3r)-3-[(1-{6-[5-(1-methylcyclopropoxy)-1H-pyrazolo[3,4-c]pyridin-3-yl]pyrimidin-4-yl}piperidin-4-yl)oxy]cyclobutyl]methyl}piperazin-1-yl)-2,3-dihydro-1H-1,3-benzodiazol-1-yl]piperidine-2,6-dione]",0.079,60
–,"Cn1c(=O)n(C2CCC(=O)NC2=O)c2ccc(C3CCN([C@H]4C[C@H](OC5CCN(c6cc(-c7n[nH]c8ccc(OC9(C)CC9)cc78)ncn6)CC5)C4)CC3)cc21 (single isomer, unassigned) [Compound 37, rel-3-(3-methyl-2-oxo-5-{1-[(1r,3r)-3-[(1-{6-[5-(1-methylcyclopropoxy)-1H-indazol-3-yl]pyrimidin-4-yl}piperidin-4-yl)oxy]cyclobutyl]piperidin-4-yl}-2,3-dihydro-1H-1,3-benzodiazol-1-yl)piperidine-2,6-dione]",0.053,64
90,"Cn1c(=O)n(C2CCC(=O)NC2=O)c2cccc(N3CCC(O[C@H]4CC[C@H](CN5CCN(c6cc(-c7n[nH]c8cnc(OC9(C)CC9)cc78)ncn6)CC5)CC4)CC3)c21 (single isomer, unassigned) [Compound 46, rel-3-[3-methyl-2-oxo-4-(4-{[(1r,4r)-4-[(4-{6-[5-(1-methylcyclopropoxy)-1H-pyrazolo[3,4-c]pyridin-3-yl]pyrimidin-4-yl}piperazin-1-yl)methyl]cyclohexyl]oxy}piperidin-1-yl)-2,3-dihydro-1H-1,3-benzodiazol-1-yl]piperidine-2,6-dione]",2.1,–
55,"CC(C)n1c(=O)n(C2CCC(=O)NC2=O)c2ccc(N3CCC(O[C@H]4CC[C@H](CN5CCN(c6cc(-c7n[nH]c8ccc(OC9(C)CC9)cc78)ncn6)CC5)CC4)CC3)cc21 (single isomer, unassigned) [Compound 49, rel-3-[2-oxo-3-(propan-2-yl)-5-(4-{[(1r,4r)-4-[(4-{6-[5-(1-methylcyclopropoxy)-1H-indazol-3-yl]pyrimidin-4-yl}piperazin-1-yl)methyl]cyclohexyl]oxy}piperidin-1-yl)-2,3-dihydro-1H-1,3-benzodiazol-1-yl]piperidine-2,6-dione]",0.44,–
53,"CC(C)n1c(=O)n(C2CCC(=O)NC2=O)c2ccc(N3CCC(O[C@H]4CC[C@H](CN5CCN(c6cc(-c7n[nH]c8cnc(OC9(C)CC9)cc78)ncn6)CC5)CC4)CC3)cc21 (single isomer, unassigned) [Compound 52, rel-3-[2-oxo-3-(propan-2-yl)-5-(4-{[(1r,4r)-4-[(4-{6-[5-(1-methylcyclopropoxy)-1H-pyrazolo[3,4-c]pyridin-3-yl]pyrimidin-4-yl}piperazin-1-yl)methyl]cyclohexyl]oxy}piperidin-1-yl)-2,3-dihydro-1H-1,3-benzodiazol-1-yl]piperidine-2,6-dione]",0.28,–
54,"CC(C)n1c(=O)n(C2CCC(=O)NC2=O)c2ccc(N3CCC(O[C@H]4CC[C@@H](CN5CCN(c6cc(-c7n[nH]c8cnc(OC9(C)CC9)cc78)ncn6)CC5)CC4)CC3)cc21 (single isomer, unassigned) [Compound 53, rel-3-[2-oxo-3-(propan-2-yl)-5-(4-{[(1r,4r)-4-[(4-{6-[5-(1-methylcyclopropoxy)-1H-pyrazolo[3,4-c]pyridin-3-yl]pyrimidin-4-yl}piperazin-1-yl)methyl]cyclohexyl]oxy}piperidin-1-yl)-2,3-dihydro-1H-1,3-benzodiazol-1-yl]piperidine-2,6-dione]",0.59,–
51,"CC(C)Oc1ccc2[nH]nc(-c3cc(N4CCN(C[C@H]5CC[C@H](OC6CCN(c7ccc8c(c7)n(C(C)C)c(=O)n8C7CCC(=O)NC7=O)CC6)CC5)CC4)ncn3)c2c1 (single isomer, unassigned) [Compound 57, rel-3-[2-oxo-3-(propan-2-yl)-5-(4-{[(1r,4r)-4-[(4-{6-[5-(propan-2-yloxy)-1H-indazol-3-yl]pyrimidin-4-yl}piperazin-1-yl)methyl]cyclohexyl]oxy}piperidin-1-yl)-2,3-dihydro-1H-1,3-benzodiazol-1-yl]piperidine-2,6-dione]",0.64,–

SMILES,"Dmax (HEK293, Table 2) [%]",DC50 (Table 2) [nM],Dmax (Table 2) [%]
"Cn1c(=O)n(C2CCC(=O)NC2=O)c2ccc(N3CCC(O[C@H]4C[C@H](COC5CCN(c6cc(-c7n[nH]c8cnc(OC9(C)CC9)cc78)ncn6)CC5)C4)CC3)cc21 (single isomer, unassigned) [Compound 34, rel-3-(3-methyl-2-oxo-5-{4-[(1r,3r)-3-{[(1-{6-[5-(1-methylcyclopropoxy)-1H-pyrazolo[3,4-c]pyridin-3-yl]pyrimidin-4-yl}piperidin-4-yl)oxy]methyl}cyclobutoxy]piperidin-1-yl}-2,3-dihydro-1H-1,3-benzodiazol-1-yl)piperidine-2,6-dione]",57,0.42,–
"Cn1c(=O)n(C2CCC(=O)NC2=O)c2ccc(N3CCC(O[C@H]4C[C@H](CN5CCN(c6cc(-c7n[nH]c8cnc(OC9(C)CC9)cc78)ncn6)CC5)C4)CC3)cc21 (single isomer, unassigned) [Compound 35, rel-3-(3-methyl-2-oxo-5-{4-[(1r,3r)-3-[(4-{6-[5-(1-methylcyclopropoxy)-1H-pyrazolo[3,4-c]pyridin-3-yl]pyrimidin-4-yl}piperazin-1-yl)methyl]cyclobutoxy]piperidin-1-yl}-2,3-dihydro-1H-1,3-benzodiazol-1-yl)piperidine-2,6-dione]",50,0.052,–
"CC(C)n1c(=O)n(C2CCC(=O)NC2=O)c2ccc(N3CCC(O[C@H]4CC[C@H](CN5CCN(c6cc(-c7n[nH]c8ccc(OC(C)(C)C)cc78)ncn6)CC5)CC4)CC3)cc21 (single isomer, unassigned) [Compound 56, rel-3-[2-oxo-3-(propan-2-yl)-5-(4-{[(1r,4r)-4-[(4-{6-[5-(tert-butoxy)-1H-indazol-3-yl]pyrimidin-4-yl}piperazin-1-yl)methyl]cyclohexyl]oxy}piperidin-1-yl)-2,3-dihydro-1H-1,3-benzodiazol-1-yl]piperidine-2,6-dione]",43,0.95,–
"CC(C)n1c(=O)n(C2CCC(=O)NC2=O)c2ccc(N3CCC(O[C@H]4CC[C@H](CN5CCN(c6cc(-c7n[nH]c8cnc(OC(C)(C)C)cc78)ncn6)CC5)CC4)CC3)cc21 (single isomer, unassigned) [Compound 58, rel-3-[2-oxo-3-(propan-2-yl)-5-(4-{[(1r,4r)-4-[(4-{6-[5-(tert-butoxy)-1H-pyrazolo[3,4-c]pyridin-3-yl]pyrimidin-4-yl}piperazin-1-yl)methyl]cyclohexyl]oxy}piperidin-1-yl)-2,3-dihydro-1H-1,3-benzodiazol-1-yl]piperidine-2,6-dione]",70,33,–
